Legend:
Type in all cases: in vivo
[1] = test system: directly sowed Oryza sativa; test: Test Example 3: effect on crop by application to foliage (Wagner pot, water depth 0.1-0.5 cm); conditions: Nineteenth Table; application to foliage; application herbicide amount 320 g/ha
In short: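 Seeds were sown in alluvial soil in Wagner pots, grown for 14 days at 25–30 °C, then sprayed uniformly on foliage with the emulsified compound diluted to a given rate per hectare. Injury was graded three weeks after treatment from 0 (≤5%) to 5 (≥90%).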

Stellaria media = test: Test Example 4: herbicidal effect by application to foliage (diluvial soil, plastic box); conditions: for P (Stellaria media) herbicidal effect grade: Application herbicide amount 320 g/ha, foliage application; for P: herbicidal effect on Stellaria media: application to foliage, application herbicide amount 320 g/ha
In short: (§1)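 Plants were grown in sterilized diluvial soil in a greenhouse at 25-30° C for 14 days, then sprayed on stems and leaves with water-diluted emulsion formulation at set rates in g/ha. Weed control and crop injury were scored 3 weeks after treatment on a 0-5 herbicidal-ratio scale, from 0 (≤5%) to 5 (≥90%).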

Veronica persica = test: as above; conditions: for R (Veronica persica) herbicidal effect grade: Application herbicide amount 320 g/ha, foliage application; for R: herbicidal effect on Veronica persica: application to foliage, application herbicide amount 320 g/ha
In short: as §1

Digitaria ciliaris = test: as above; conditions: for F (Digitaria ciliaris) herbicidal effect grade: Application herbicide amount 320 g/ha, foliage application; for F: herbicidal effect on Digitaria ciliaris: application to foliage, application herbicide amount 320 g/ha
In short: as §1

Lolium multiflorum Lam. = test: as above; conditions: for K (Lolium multiflorum Lam.) herbicidal effect grade: Application herbicide amount 320 g/ha, foliage application; for K: herbicidal effect on Lolium multiflorum Lam.: application to foliage, application herbicide amount 320 g/ha
In short: as §1

Chenopodium album = test: as above; conditions: for O (Chenopodium album) herbicidal effect grade: Application herbicide amount 320 g/ha, foliage application; for O: herbicidal effect on Chenopodium album: application to foliage, application herbicide amount 320 g/ha
In short: as §1

[2] = test system: Echinochloa crus-galli var. crus-galli; test: as above; conditions: for H (Echinochloa crus-galli var. crus-galli) herbicidal effect grade: Application herbicide amount 320 g/ha, foliage application; for H: herbicidal effect on Echinochloa crus-galli var. crus-galli: application to foliage, application herbicide amount 320 g/ha
In short: as §1

Setaria viridis = test: as above; conditions: for G (Setaria viridis) herbicidal effect grade: Application herbicide amount 320 g/ha, foliage application; for G: herbicidal effect on Setaria viridis: application to foliage, application herbicide amount 320 g/ha
In short: as §1

Alopecurus myosuroides = test: as above; conditions: for J (Alopecurus myosuroides) herbicidal effect grade: Application herbicide amount 320 g/ha, foliage application; for J: herbicidal effect on Alopecurus myosuroides: application to foliage, application herbicide amount 320 g/ha
In short: as §1

Apera spica-venti. = test: as above; conditions: for L (Apera spica-venti.) herbicidal effect grade: Application herbicide amount 320 g/ha, foliage application; for L: herbicidal effect on Apera spica-venti.: application to foliage, application herbicide amount 320 g/ha
In short: as §1

Avena fatua = test: as above; conditions: for I (Avena fatua) herbicidal effect grade: Application herbicide amount 320 g/ha, foliage application; for I: herbicidal effect on Avena fatua: application to foliage, application herbicide amount 320 g/ha
In short: as §1

Abutilon theophrasti = test: as above; conditions: for M (Abutilon theophrasti) herbicidal effect grade: Application herbicide amount 320 g/ha, foliage application; for M: herbicidal effect on Abutilon theophrasti: application to foliage, application herbicide amount 320 g/ha
In short: as §1

Galium spurium = test: as above; conditions: for Q (Galium spurium) herbicidal effect grade: Application herbicide amount 320 g/ha, foliage application; for Q: herbicidal effect on Galium spurium: application to foliage, application herbicide amount 320 g/ha
In short: as §1

Amaranthus retroflexus = test: as above; conditions: for N (Amaranthus retroflexus) herbicidal effect grade: Application herbicide amount 320 g/ha, foliage application; for N: herbicidal effect on Amaranthus retroflexus: application to foliage, application herbicide amount 320 g/ha
In short: as §1

Cc1nnc(NC(=O)c2ccc(C(F)(F)F)n3c(N4CCCC4)nnc23)o1 [1-136]
b (effect on crop grade) [1]: 2 (Herbicidal ratio of 20% or more and less than 40%) | P (Stellaria media) herbicidal effect grade (Stellaria media): 4 (Herbicidal ratio of 70% or more and less than 90%) | R (Veronica persica) herbicidal effect grade (Veronica persica): 3 (Herbicidal ratio of 40% or more and less than 70%) | F (Digitaria ciliaris) herbicidal effect grade (Digitaria ciliaris): 4 (Herbicidal ratio of 70% or more and less than 90%) | K (Lolium multiflorum Lam.) herbicidal effect grade (Lolium multiflorum Lam.): 0 (Herbicidal ratio of 5% or less (almost no effect)) | O (Chenopodium album) herbicidal effect grade (Chenopodium album): 5 (Herbicidal ratio of 90% or more (almost completely withered)) | H (Echinochloa crus-galli var. crus-galli) herbicidal effect grade [2]: 4 (Herbicidal ratio of 70% or more and less than 90%) | G (Setaria viridis) herbicidal effect grade (Setaria viridis): 2 (Herbicidal ratio of 20% or more and less than 40%) | J (Alopecurus myosuroides) herbicidal effect grade (Alopecurus myosuroides): 0 (Herbicidal ratio of 5% or less (almost no effect)) | L (Apera spica-venti.) herbicidal effect grade (Apera spica-venti.): 1 (Herbicidal ratio of 5% or more and less than 20%) | I (Avena fatua) herbicidal effect grade (Avena fatua): 0 (Herbicidal ratio of 5% or less (almost no effect)) | M (Abutilon theophrasti) herbicidal effect grade (Abutilon theophrasti): 3 (Herbicidal ratio of 40% or more and less than 70%) | Q (Galium spurium) herbicidal effect grade (Galium spurium): 0 (Herbicidal ratio of 5% or less (almost no effect)) | N (Amaranthus retroflexus) herbicidal effect grade (Amaranthus retroflexus): 2 (Herbicidal ratio of 20% or more and less than 40%)

Cn1nnnc1NC(=O)c1ccc(C(F)(F)F)n2c(COc3ccccc3)nnc12 [2-020]
b (effect on crop grade) [1]: 4 (Herbicidal ratio of 70% or more and less than 90%) | P: herbicidal effect on Stellaria media (Stellaria media): 4 (Herbicidal ratio of 70% or more and less than 90%) | R: herbicidal effect on Veronica persica (Veronica persica): 4 (Herbicidal ratio of 70% or more and less than 90%) | F: herbicidal effect on Digitaria ciliaris (Digitaria ciliaris): 3 (Herbicidal ratio of 40% or more and less than 70%) | K: herbicidal effect on Lolium multiflorum Lam. (Lolium multiflorum Lam.): 1 (Herbicidal ratio of 5% or more and less than 20%) | O: herbicidal effect on Chenopodium album (Chenopodium album): 5 (Herbicidal ratio of 90% or more (almost completely withered)) | H: herbicidal effect on Echinochloa crus-galli var. crus-galli [2]: 3 (Herbicidal ratio of 40% or more and less than 70%) | G: herbicidal effect on Setaria viridis (Setaria viridis): 3 (Herbicidal ratio of 40% or more and less than 70%) | J: herbicidal effect on Alopecurus myosuroides (Alopecurus myosuroides): 0 (Herbicidal ratio of 5% or less (almost no effect)) | L: herbicidal effect on Apera spica-venti. (Apera spica-venti.): 1 (Herbicidal ratio of 5% or more and less than 20%) | I: herbicidal effect on Avena fatua (Avena fatua): 1 (Herbicidal ratio of 5% or more and less than 20%) | M: herbicidal effect on Abutilon theophrasti (Abutilon theophrasti): 5 (Herbicidal ratio of 90% or more (almost completely withered)) | Q: herbicidal effect on Galium spurium (Galium spurium): 2 (Herbicidal ratio of 20% or more and less than 40%) | N: herbicidal effect on Amaranthus retroflexus (Amaranthus retroflexus): 4 (Herbicidal ratio of 70% or more and less than 90%)

Cn1nnnc1NC(=O)c1ccc(C(F)(F)F)n2c(-c3ccc(Cl)cc3)nnc12 [2-012]
b (effect on crop grade) [1]: 2 (Herbicidal ratio of 20% or more and less than 40%) | P: herbicidal effect on Stellaria media (Stellaria media): 5 (Herbicidal ratio of 90% or more (almost completely withered)) | R: herbicidal effect on Veronica persica (Veronica persica): 4 (Herbicidal ratio of 70% or more and less than 90%) | F: herbicidal effect on Digitaria ciliaris (Digitaria ciliaris): 4 (Herbicidal ratio of 70% or more and less than 90%) | K: herbicidal effect on Lolium multiflorum Lam. (Lolium multiflorum Lam.): 2 (Herbicidal ratio of 20% or more and less than 40%) | O: herbicidal effect on Chenopodium album (Chenopodium album): 5 (Herbicidal ratio of 90% or more (almost completely withered)) | H: herbicidal effect on Echinochloa crus-galli var. crus-galli [2]: 4 (Herbicidal ratio of 70% or more and less than 90%) | G: herbicidal effect on Setaria viridis (Setaria viridis): 1 (Herbicidal ratio of 5% or more and less than 20%) | J: herbicidal effect on Alopecurus myosuroides (Alopecurus myosuroides): 2 (Herbicidal ratio of 20% or more and less than 40%) | L: herbicidal effect on Apera spica-venti. (Apera spica-venti.): 2 (Herbicidal ratio of 20% or more and less than 40%) | I: herbicidal effect on Avena fatua (Avena fatua): 3 (Herbicidal ratio of 40% or more and less than 70%) | M: herbicidal effect on Abutilon theophrasti (Abutilon theophrasti): 5 (Herbicidal ratio of 90% or more (almost completely withered)) | Q: herbicidal effect on Galium spurium (Galium spurium): 4 (Herbicidal ratio of 70% or more and less than 90%) | N: herbicidal effect on Amaranthus retroflexus (Amaranthus retroflexus): 5 (Herbicidal ratio of 90% or more (almost completely withered))

O=C(Nc1nnco1)c1ccc(C(F)(F)F)n2c(N3CCOCC3)nnc12 [1-110]
b (effect on crop grade) [1]: 5 (Herbicidal ratio of 90% or more (almost completely withered)) | P (Stellaria media) herbicidal effect grade (Stellaria media): 5 (Herbicidal ratio of 90% or more (almost completely withered)) | R (Veronica persica) herbicidal effect grade (Veronica persica): 5 (Herbicidal ratio of 90% or more (almost completely withered)) | F (Digitaria ciliaris) herbicidal effect grade (Digitaria ciliaris): 5 (Herbicidal ratio of 90% or more (almost completely withered)) | K (Lolium multiflorum Lam.) herbicidal effect grade (Lolium multiflorum Lam.): 3 (Herbicidal ratio of 40% or more and less than 70%) | O (Chenopodium album) herbicidal effect grade (Chenopodium album): 5 (Herbicidal ratio of 90% or more (almost completely withered)) | H (Echinochloa crus-galli var. crus-galli) herbicidal effect grade [2]: 5 (Herbicidal ratio of 90% or more (almost completely withered)) | G (Setaria viridis) herbicidal effect grade (Setaria viridis): 5 (Herbicidal ratio of 90% or more (almost completely withered)) | J (Alopecurus myosuroides) herbicidal effect grade (Alopecurus myosuroides): 3 (Herbicidal ratio of 40% or more and less than 70%) | L (Apera spica-venti.) herbicidal effect grade (Apera spica-venti.): 3 (Herbicidal ratio of 40% or more and less than 70%) | I (Avena fatua) herbicidal effect grade (Avena fatua): 4 (Herbicidal ratio of 70% or more and less than 90%) | M (Abutilon theophrasti) herbicidal effect grade (Abutilon theophrasti): 4 (Herbicidal ratio of 70% or more and less than 90%) | Q (Galium spurium) herbicidal effect grade (Galium spurium): 4 (Herbicidal ratio of 70% or more and less than 90%) | N (Amaranthus retroflexus) herbicidal effect grade (Amaranthus retroflexus): 5 (Herbicidal ratio of 90% or more (almost completely withered))

Source: patent US9708314B2, “Heterocyclic amide compound” (NISSAN CHEMICAL INDUSTRIES, LTD., priority 2013, dated 2017)
